System: patients with fasting triglyceride levels >200 mg/dl and <500 mg/dl despite statin therapy
Assay: 12-week placebo-controlled study of >96% E-EPA: fasting triglycerides (TG), incl. TG goal
Format: in vivo, human
Conditions: for Median reduction in triglycerides compared to baseline / TG Median % chg from BL / TG, Diff from pbo (Hodges-Lehmann median difference) / TG, EOT (Week 12 endpoint) median / TG Diff from pbo (median % chg, Hodges-Lehmann) / TG EOT Median / Fasting Triglycerides, Week 12 EP Median (IQR): MITT; for Median reduction in triglycerides compared to baseline / Percentage Achieving TG Goal (less than 150 mg/dL): Week 12; for Fasting Triglycerides, Percent change from Baseline, Median (IQR) / Fasting Triglycerides, Difference from placebo, Estimated median: Week 12, MITT; for Fasting Triglycerides, Difference from placebo, Estimated median: difference in percent change
Description: A multi-center, placebo-controlled, randomized, double-blind, 12-week study was performed to evaluate the efficacy and safety of >96% E-EPA in patients with fasting triglyceride levels >200 mg/dl and <500 mg/dl despite statin therapy (the mean of two qualifying entry values needed to be >185 mg/dl and at least one of the values needed to be >200 mg/dl). The primary objective of the study was to determine the efficacy of >96% E-EPA 2 g daily and 4 g daily, compared to placebo, in lowering fasting TG levels in patients with high risk for cardiovascular disease and with fasting TG levels 200 mg/dl and <500 mg/dl, despite treatment to LDL-C goal on statin therapy. The population for this study was men and women >18 years of age with a body mass index ≤45 kg/m^2 with fasting TG levels greater than or equal to 200 mg/dl and less than 500 mg/dl and on a stable does of statin therapy (with or without ezetimibe). The statin was atorvostatin, rosuvastatin or simvastatin. The dose of statin must have been stable for ≥4 weeks prior to the LDL-C/TG baseline qualifying measurement for randomization. The statin dose was optimized such that the patients are at their LDL-C goal at the LDL-C/TG baseline qualifying measurements. The same statin at the same dose was continued until the study ended. Approximately 702 patients were randomized at approximately 80 centers in the U.S. The study was a 18- to 20-week, Phase 3, multi-center study consisting of 2 study periods: (1) A 6- to 8-week screening period that included a diet and lifestyle stabilization, a non-statin lipid-altering treatment washout, and an LDL-C and TG qualifying period and (2) A 12-week, double-blind, randomized, placebo-controlled treatment period. After confirmation of qualifying fasting LDL-C and TG values, eligible patients entered a 12-week, randomized, double-blind treatment period. At Visit 4 (Week 0), patients were randomly assigned to 1 of the following treatment groups: • >96% E-EPA 2 g daily, • >96% E-EPA 4 g daily, or • Placebo. During the double-blind treatment period, patients were to take 2 capsules (>96% E-EPA or matching placebo) in the morning and 2 capsules in the evening for a total of 4 capsules per day. • Patients in the >96% E-EPA 2 g/day treatment group received 1>96% E-EPA 1 g capsule and 1 matching placebo capsule in the morning and in the evening. • Patients in the >96% E-EPA 4 g/day treatment group received 2>96% E-EPA 1 g capsules in the morning and evening. The primary efficacy variable for the double-blind treatment period was percent change in TG from baseline to Week 12 endpoint. The secondary efficacy variables for the double-blind treatment period included the following: • Percent changes in total cholesterol (TC), high-density lipoprotein cholesterol (HDL-C), LDL-C, calculated non-HDL-C, and very low-density lipoprotein cholesterol (VLDL-C) from baseline to Week 12 endpoint; • Percent change in very low-density lipoprotein TG from baseline to Week 12; • Percent changes in apolipoprotein A-I (Apo A-1), apolipoprotein B (Apo B), and Apo A-1/Apo B ratio from baseline to Week 12; • Percent changes in lipoprotein(a) from baseline to Week 12; • Percent changes in LDL particle number and size, measured by nuclear magnetic resonance, from baseline to Week 12; • Percent change in remnant-like particle cholesterol from baseline to Week 12; • Percent change in oxidized LDL from baseline to Week 12; • Changes in FPG and HbA1c from baseline to Week 12; • Change in insulin resistance, as assessed by the homeostasis model index insulin resistance, from baseline to Week 12; • Percent change in lipoprotein associated phospholipase A2 (Lp-PLA2) from baseline to Week 12; • Change in intracellular adhesion molecule-1 from baseline to Week 12; • Change in interleukin-2 from baseline to Week 12; • Change in plasminogen activator inhibitor-1 from baseline to Week 12. […]

[1] = AMR 101 2 g + statin, Atorva subgroup
[2] = AMR 101 2 g + statin, Rosuva subgroup
[3] = AMR 101 2 g + statin, Simva subgroup
[4] = AMR 101 2 g + statin, Statin Potency High
[5] = AMR 101 2 g + statin, Statin Potency Low
[6] = AMR 101 2 g + statin, Statin Potency Medium
[7] = AMR 101 2 g + statin, Diabetes No, Week 12 endpoint
[8] = AMR 101 2 g + statin, Diabetes Yes, Week 12 endpoint
[9] = AMR 101 2 g + statin, Non-statin Washout No, Week 12 endpoint
[10] = AMR 101 2 g + statin, Non-statin Washout Yes, Week 12 endpoint
[11] = AMR 101 2 g + statin, baseline TG tertile Highest (≥289.5 mg/dL), Week 12 endpoint
[12] = AMR 101 2 g + statin, baseline TG tertile Lowest (<230.5 mg/dL), Week 12 endpoint
[13] = AMR 101 2 g + statin, baseline TG tertile Middle (230.5 to <289.5 mg/dL), Week 12 endpoint
[14] = AMR 101 4 g + statin, Atorva subgroup
[15] = AMR 101 4 g + statin, Rosuva subgroup
[16] = AMR 101 4 g + statin, Simva subgroup
[17] = AMR 101 4 g + statin, Statin Potency High
[18] = AMR 101 4 g + statin, Statin Potency Low
[19] = AMR 101 4 g + statin, Statin Potency Medium
[20] = AMR 101 4 g + statin, Diabetes No, Week 12 endpoint
[21] = AMR 101 4 g + statin, Diabetes Yes, Week 12 endpoint
[22] = AMR 101 4 g + statin, Non-statin Washout No, Week 12 endpoint
[23] = AMR 101 4 g + statin, Non-statin Washout Yes, Week 12 endpoint
[24] = AMR 101 4 g + statin, baseline TG tertile Highest (≥289.5 mg/dL), Week 12 endpoint
[25] = AMR 101 4 g + statin, baseline TG tertile Lowest (<230.5 mg/dL), Week 12 endpoint
[26] = AMR 101 4 g + statin, baseline TG tertile Middle (230.5 to <289.5 mg/dL), Week 12 endpoint
[27] = IPE 4 g/day (n = 216), 12 weeks, patients with lipoprotein data

CC/C=C\C/C=C\C/C=C\C/C=C\C/C=C\CCCC(=O)OCC [AMR101, ethyl eicosapentaenoate]
Median reduction in triglycerides compared to baseline (2 g/day): 2.6% | Percentage Achieving TG Goal (less than 150 mg/dL) (2 g/day): 3.8% | Subjects who Achieved TG Goal (less than 150 mg/dL), number (2 g/day, Week 12, total n 234): 9 | Median reduction in triglycerides compared to baseline (4 g/day): 17.5% | Percentage Achieving TG Goal (less than 150 mg/dL) (4 g/day): 7.1% | Subjects who Achieved TG Goal (less than 150 mg/dL), number (4 g/day, Week 12, total n 226): 16 | TG Median % chg from BL [1]: −0.5% | TG, Diff from pbo (Hodges-Lehmann median difference) [1]: −2.4 | TG, EOT (Week 12 endpoint) median [1]: 245.0 | TG Median % chg from BL [2]: −5.8% | TG, Diff from pbo (Hodges-Lehmann median difference) [2]: −5.7 | TG, EOT (Week 12 endpoint) median [2]: 252.5 | TG Median % chg from BL [3]: −8.8% | TG, Diff from pbo (Hodges-Lehmann median difference) [3]: −14.3 | TG, EOT (Week 12 endpoint) median [3]: 241.3 | TG Median % chg from BL [4]: −5.8% | TG, Diff from pbo (Hodges-Lehmann median difference) [4]: −11.7 | TG, EOT (Week 12 endpoint) median [4]: 239.5 | TG Median % chg from BL [5]: −18.8% | TG, Diff from pbo (Hodges-Lehmann median difference) [5]: −13.8 | TG, EOT (Week 12 endpoint) median [5]: 208.5 | TG Median % chg from BL [6]: −5.3% | TG, Diff from pbo (Hodges-Lehmann median difference) [6]: −8.7 | TG, EOT (Week 12 endpoint) median [6]: 248.0 | TG Diff from pbo (median % chg, Hodges-Lehmann) [7]: −10.8% | TG EOT Median [7]: 245.0 mg/dL | TG Median % chg from BL [7]: −12.1% | TG Diff from pbo (median % chg, Hodges-Lehmann) [8]: −9.8% | TG EOT Median [8]: 244.0 mg/dL | TG Median % chg from BL [8]: −1.5% | TG Diff from pbo (median % chg, Hodges-Lehmann) [9]: −10.7% | TG EOT Median [9]: 229.0 mg/dL | TG Median % chg from BL [9]: −7.9% | TG Diff from pbo (median % chg, Hodges-Lehmann) [10]: −9.5% | TG EOT Median [10]: 249.5 mg/dL | TG Median % chg from BL [10]: −4.2% | TG Diff from pbo (median % chg, Hodges-Lehmann) [11]: −16.9% | TG EOT Median [11]: 320.3 mg/dL | TG Median % chg from BL [11]: −8.7% | TG Diff from pbo (median % chg, Hodges-Lehmann) [12]: −4.1% | TG EOT Median [12]: 207.8 mg/dL | TG Median % chg from BL [12]: 0.7% | TG Diff from pbo (median % chg, Hodges-Lehmann) [13]: −9.9% | TG EOT Median [13]: 228.3 mg/dL | TG Median % chg from BL [13]: −13.0% | Fasting Triglycerides, Week 12 EP Median (IQR) (AMR101 2 g/d + statin, n 234): 244.3 (117.0) | Fasting Triglycerides, Percent change from Baseline, Median (IQR) (AMR101 2g/d + statin): −5.6 (34.5) % | Fasting Triglycerides, Difference from placebo, Estimated median (AMR101 2g/d + statin): −10.1 | TG Median % chg from BL [14]: −23.9% | TG, Diff from pbo (Hodges-Lehmann median difference) [14]: −28.4 | TG, EOT (Week 12 endpoint) median [14]: 216.0 | TG Median % chg from BL [15]: −20.5% | TG, Diff from pbo (Hodges-Lehmann median difference) [15]: −23.4 | TG, EOT (Week 12 endpoint) median [15]: 204.0 | TG Median % chg from BL [16]: −14.7% | TG, Diff from pbo (Hodges-Lehmann median difference) [16]: −18.8 | TG, EOT (Week 12 endpoint) median [16]: 228.0 | TG Median % chg from BL [17]: −20.2% | TG, Diff from pbo (Hodges-Lehmann median difference) [17]: −26.0 | TG, EOT (Week 12 endpoint) median [17]: 214.5 | TG Median % chg from BL [18]: 0.5% | TG, Diff from pbo (Hodges-Lehmann median difference) [18]: −13.1 | TG, EOT (Week 12 endpoint) median [18]: 256.8 | TG Median % chg from BL [19]: −15.8% | TG, Diff from pbo (Hodges-Lehmann median difference) [19]: −20.1 | TG, EOT (Week 12 endpoint) median [19]: 221.0 | TG Diff from pbo (median % chg, Hodges-Lehmann) [20]: −16.8% | TG EOT Median [20]: 234.5 mg/dL | TG Median % chg from BL [20]: −15.0% | TG Diff from pbo (median % chg, Hodges-Lehmann) [21]: −23.2% | TG EOT Median [21]: 216.5 mg/dL | TG Median % chg from BL [21]: −18.7% | TG Diff from pbo (median % chg, Hodges-Lehmann) [22]: −20.8% | TG EOT Median [22]: 220.0 mg/dL | TG Median % chg from BL [22]: −16.7% | TG Diff from pbo (median % chg, Hodges-Lehmann) [23]: −22.4% | TG EOT Median [23]: 220.8 mg/dL | TG Median % chg from BL [23]: −17.7% | TG Diff from pbo (median % chg, Hodges-Lehmann) [24]: −31.1% | TG EOT Median [24]: 260.0 mg/dL | TG Median % chg from BL [24]: −21.8% | TG Diff from pbo (median % chg, Hodges-Lehmann) [25]: −14.4% | TG EOT Median [25]: 183.5 mg/dL | TG Median % chg from BL [25]: −10.9% | TG Diff from pbo (median % chg, Hodges-Lehmann) [26]: −17.9% | TG EOT Median [26]: 205.0 mg/dL | TG Median % chg from BL [26]: −19.3% | Fasting Triglycerides, Week 12 EP Median (IQR) (AMR101 4 g/d + statin, n 226): 220.8 (92.0) | Fasting Triglycerides, Percent change from Baseline, Median (IQR) (AMR101 4g/d + statin): −17.5 (31.0) % | Fasting Triglycerides, Difference from placebo, Estimated median (AMR101 4g/d + statin): −21.5 | TG, Change From Baseline, % (median) [27]: −17.5% | TG, End of Treatment (median) [27]: 219.3 mg/dL | TG, Median Change From Baseline IPE 4 g/day vs Placebo, % (IPE 4 g/day vs placebo, 12 weeks, Hodges-Lehmann median): −21.1%
